According to patent publication US12103939B2, “Solid pharmaceutical gold-based composition” (KING FAHD UNIVERSITY OF PETROLEUM AND MINERALS, priority 2019, dated 2024):

How the values were obtained:
[1] = tested on: MCF-7 breast cancer cell line; test: Cytotoxicity assay (MTT, 72 h); assay type: cell-based, human; conditions: MCF-7, MTT after 72 h, mean (SD); read-out: Half-maximal inhibitory concentration (IC50)
Procedure: (§1) R-ME-180 and A2780cis cells were maintained in 1 μM cisplatin. Adipose-derived stromal cells were maintained in MSCGM BulletKit medium (Lonza). All cell lines were cultured at 37° C. in a 5% CO2, fully humidified atmosphere
(§2) Cell lines were seeded in 96-well flat-bottomed microplates in 100 μL culture medium at the following densities: DU145, PC3 and MCF-7 cells (2.5×10^3 cells/well); A2780, A2780cis, ME-180, R-ME-180 and A549 cells (4.0×10^3 cells/well); and MG-63 cells (2.0×10^3 cells/well). Cells were allowed to adhere for 24 h. Then the medium was replaced with fresh medium alone or with one of the gold(III) complexes at increasing concentrations from 0 to 100 μM. The reference drugs cisplatin (0-100 μM) and doxorubicin (0-1 μM) were included as positive controls for growth inhibition. After 72 h, cell viability was assayed using the MTT assay.
(§3) See Chou T. C.; Talalay P. Quantitative analysis of dose-effect relationships: the combined effects of multiple drugs or enzyme inhibitors. […] 22, 27-55, incorporated herein by reference in its entirety. IC50 values were reported as mean (SD). For drug-resistance cell lines, fold resistance (FR) was calculated as the ratio of the IC50 of the resistant cell line to the IC50 of the parental cell line.

[2] = tested on: ovarian cancer cell line A2780; test: Cytotoxicity assay (MTT, 72 h); assay type: cell-based, human; conditions: A2780, MTT after 72 h, mean (SD)
Procedure: as §1, §2, §3

[3] = tested on: cisplatin-resistant R-ME-180 clone; test: Cytotoxicity assay (MTT, 72 h); assay type: cell-based, human; conditions: for FR (R-ME-180/ME-180), fold resistance: IC50 R-ME-180 / IC50 ME-180; for IC50: R-ME-180, MTT after 72 h, mean (SD)
Procedure: as §1, §2, §3

[4] = tested on: MG-63 osteosarcoma cell line; test: Cytotoxicity assay (MTT, 72 h); assay type: cell-based, human; conditions: MG63, MTT after 72 h, mean (SD); read-out: Half-maximal inhibitory concentration (IC50)
Procedure: as §1, §2, §3

[5] = tested on: DU145 prostate cancer cell line; test: Cytotoxicity assay (MTT, 72 h); assay type: cell-based, human; conditions: DU145, MTT after 72 h, mean (SD); read-out: Half-maximal inhibitory concentration (IC50)
Procedure: as §1, §2, §3

[6] = tested on: A549 lung cancer cell line; test: Cytotoxicity assay (MTT, 72 h); assay type: cell-based, human; conditions: A549, MTT after 72 h, mean (SD); read-out: Half-maximal inhibitory concentration (IC50)
Procedure: as §1, §2, §3

[7] = tested on: cisplatin- and doxorubicin-resistant A2780cis clone; test: Cytotoxicity assay (MTT, 72 h); assay type: cell-based, human; conditions: for IC50: A2780cis, MTT after 72 h, mean (SD); for FR (A2780cis/A2780), fold resistance: IC50 A2780cis / IC50 A2780
Procedure: as §1, §2, §3

[8] = tested on: PC3 prostate cancer cell line; test: Cytotoxicity assay (MTT, 72 h); assay type: cell-based, human; conditions: PC3, MTT after 72 h, mean (SD); read-out: Half-maximal inhibitory concentration (IC50)
Procedure: as §1, §2, §3

[9] = tested on: cervical cancer cell line ME-180; test: Cytotoxicity assay (MTT, 72 h); assay type: cell-based, human; conditions: ME-180, MTT after 72 h, mean (SD)
Procedure: as §1, §2, §3

lysozyme = target: T1, lysozyme (Gallus gallus, UniProt P00698); test: Voltammetry, interaction with lysozyme; conditions: 100 μM complex
T1 construct: purchased Sigma-Aldrich
Procedure: The pH of buffers was monitored on a Accumet XL50 pH meter. A GR-2000 electrical balance was used to weigh the various chemicals. Electrochemical measurements for cyclic voltammetry and square wave voltammetry were performed using Autolab instruments (Metrohm; Netherlands). […] The GCE was polished as a mirror-like surface with alumina slurry on a synthetic cloth before every electrochemical analysis. Square wave voltammetry and cyclic voltammetry were scanned from 0 to 1.3 V for the various analyses. Elemental analyses of gold(III) complexes (C1-C8) were performed on PerkinElmer Series 11 (CHNS/O), Analyzer 2400.
The electrochemical investigation of the interactions between the gold(III) complexes (C1-C8) and lysozyme, tryptophan and guanine was performed using the Autolab instrument described above, with a three-electrode system (CH Instruments): platinum wire counter electrode (CHI115), Ag/AgCl reference electrode (in 3 M KCl, CHI111) and glassy carbon working electrode (CHI112) inserted into a 5.0 ml glass cell. Solutions of 1 mM lysozyme, 5 mM tryptophan and 5 mM guanine were prepared in double distilled water, and the experiment was performed in 0.1 M phosphate buffer at pH 6.8.

PC3 cells = test: Cellular uptake of gold(III) complexes (ICP-MS); assay type: cell-based, human; conditions: 3 μM, 2 h, ICP mass spectrometry
Procedure: After treatment, monolayers were washed with ice-cold PBS four times, and the cells were detached with trypsin-EDTA and washed three times with ice-cold PBS by centrifugation. The cell pellet was solubilized in 700 μL of HNO3—HCl solution (1:3 molar ratio) for 2 h at 100° C., and then diluted with 4 mL water. Samples were analyzed for gold on an Agilent 7500 inductively coupled plasma mass spectrometer (ICP-MS). Results were expressed as ng gold/10^6 cells. The experiment was performed a total of two times and the results were expressed as mean and SD.

[10] = CV, 0 μM lysozyme, 0.1 M phosphate buffer pH 6.8

T1 sequence (P00698 19-147): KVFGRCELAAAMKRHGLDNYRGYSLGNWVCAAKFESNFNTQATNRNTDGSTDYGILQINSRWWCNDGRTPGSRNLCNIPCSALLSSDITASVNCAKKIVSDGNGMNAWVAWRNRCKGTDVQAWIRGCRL

Oc1ccc[n+]2c1-c1c(O)ccc[n+]1[Au-]21[S]C(N(Cc2ccccc2)Cc2ccccc2)=[S+]1.[Cl-].[Cl-] [C4, [Au(BPYH)(DBDTC)]Cl2]
IC50 [1]: 13 µM | IC50 [2]: 7.3 µM | FR (R-ME-180/ME-180), fold resistance [3]: 1.0 | IC50 [3]: 30 µM | IC50 [4]: 12.3 µM | IC50 [5]: 6.4 µM | IC50 [6]: 25 µM | IC50 [7]: 8.2 µM | FR (A2780cis/A2780), fold resistance [7]: 1.1 | IC50 [8]: 8.5 µM | IC50 [9]: 30 µM | Voltammetry peak potential (lysozyme; [10]): 0.7965 V | Voltammetry peak potential (lysozyme; CV, 1 μM lysozyme, pH 6.8): 0.8098 V | Voltammetry peak potential (lysozyme; CV, 4 μM lysozyme, pH 6.8): 0.8186 V | Voltammetry peak potential (lysozyme; CV, 10 μM lysozyme, pH 6.8): 0.8275 V | Voltammetry peak potential (lysozyme; SWV, 0 μM lysozyme, pH 6.8): 0.7883 V | Voltammetry peak potential (lysozyme; SWV, 1 μM lysozyme, pH 6.8): 0.7934 V | Voltammetry peak potential (lysozyme; SWV, 4 μM lysozyme, pH 6.8): 0.8085 V | Voltammetry peak potential (lysozyme; SWV, 10 μM lysozyme, pH 6.8): 0.8135 V

N.N.[Cl][Pt][Cl] [Cisplatin, reference compound]
IC50 [2]: 1.5 µM | FR (R-ME-180/ME-180), fold resistance [3]: 4.5 | IC50 [3]: 68 µM | IC50 [5]: 4.5 µM | IC50 [7]: 10.4 µM | FR (A2780cis/A2780), fold resistance [7]: 6.9 | IC50 [8]: 3.3 µM | IC50 [9]: 15 µM

COc1cccc2c1C(=O)c1c(O)c3c(c(O)c1C2=O)C[C@@](O)(C(=O)CO)C[C@@H]3O[C@H]1C[C@H](N)[C@H](O)[C@H](C)O1 [Doxorubicin, reference compound]
IC50 ([2]; Homo sapiens): 0.02 µM | IC50 ([7]; Homo sapiens): 0.12 µM | FR (A2780cis/A2780), fold resistance [7]: 9.0

CC[N+](CC)=C1[S][Au-]2([S]1)[n+]1ccc[n+]3c1-c1[n+]2ccc[n+]1[Au-]31[S]C(=[N+](CC)CC)[S]1.[Cl-].[Cl-].[Cl-].[Cl-] [C7, [Au2(BPM)(DEDTC)2]Cl4]
IC50 [1]: 0.6 µM | FR (R-ME-180/ME-180), fold resistance [3]: 0.9 | IC50 [3]: 4.1 µM | IC50 [4]: 0.7 µM | IC50 [5]: 0.8 µM | IC50 [6]: 1.4 µM | IC50 [7]: 0.3 µM | FR (A2780cis/A2780), fold resistance [7]: 0.9 | IC50 [8]: 0.8 µM | amount of internalized gold (cellular uptake) (PC3 cells): greater uptake

Oc1ccc[n+]2c1-c1c(O)ccc[n+]1[Au-]2([Cl])[Cl].[Cl-] [C1, [Au(BPYH)(Cl)2]Cl]
IC50 [1]: 59 µM | IC50 [2]: 23 µM | FR (R-ME-180/ME-180), fold resistance [3]: 1.0 | IC50 [3]: 72 µM | IC50 [4]: 43 µM | IC50 [5]: 39 µM | IC50 [6]: > 80 µM | IC50 [7]: 24 µM | FR (A2780cis/A2780), fold resistance [7]: 1.0 | IC50 [8]: 28.3 µM | IC50 [9]: 70 µM | Voltammetry peak potential (lysozyme; [10]): 0.739 V | Voltammetry peak potential (lysozyme; CV, 1 μM lysozyme, pH 6.8): 0.8142 V | Voltammetry peak potential (lysozyme; CV, 4 μM lysozyme, pH 6.8): 0.8319 V | Voltammetry peak potential (lysozyme; CV, 10 μM lysozyme, pH 6.8): 0.8762 V | Voltammetry peak potential (lysozyme; SWV, 0 μM lysozyme, pH 6.8): 0.7934 V | Voltammetry peak potential (lysozyme; SWV, 1 μM lysozyme, pH 6.8): 0.8034 V | Voltammetry peak potential (lysozyme; SWV, 4 μM lysozyme, pH 6.8): 0.8387 V | Voltammetry peak potential (lysozyme; SWV, 10 μM lysozyme, pH 6.8): 0.8639 V

CCN(CC)C1=[S+][Au-]2([S]1)[n+]1cccc(O)c1-c1c(O)ccc[n+]12.[Cl-].[Cl-] [C3, [Au(BPYH)(DEDTC)]Cl2]
IC50 [1]: 1.7 µM | FR (R-ME-180/ME-180), fold resistance [3]: 1.3 | IC50 [3]: 3.8 µM | IC50 [4]: 1.2 µM | IC50 [5]: 3.5 µM | IC50 [6]: 3.8 µM | IC50 [7]: 0.4 µM | FR (A2780cis/A2780), fold resistance [7]: 1.1 | IC50 [8]: 1.3 µM | Voltammetry peak potential (lysozyme; [10]): 0.7965 V | Voltammetry peak potential (lysozyme; CV, 1 μM lysozyme, pH 6.8): 0.8098 V | Voltammetry peak potential (lysozyme; CV, 4 μM lysozyme, pH 6.8): 0.8231 V | Voltammetry peak potential (lysozyme; CV, 10 μM lysozyme, pH 6.8): 0.8363 V | Voltammetry peak potential (lysozyme; SWV, 0 μM lysozyme, pH 6.8): 0.7934 V | Voltammetry peak potential (lysozyme; SWV, 1 μM lysozyme, pH 6.8): 0.8034 V | Voltammetry peak potential (lysozyme; SWV, 4 μM lysozyme, pH 6.8): 0.8135 V | Voltammetry peak potential (lysozyme; SWV, 10 μM lysozyme, pH 6.8): 0.8236 V

[Cl-].[Cl-].[Cl][Au-]1([Cl])[n+]2ccc[n+]3c2-c2[n+]1ccc[n+]2[Au-]3([Cl])[Cl] [C5, [Au2(BPM)(Cl)4]Cl2]
IC50 [1]: 65 µM | IC50 [2]: 15.4 µM | IC50 [3]: > 80 µM | IC50 [4]: 26 µM | IC50 [5]: > 80 µM | IC50 [6]: > 80 µM | IC50 [7]: 16.2 µM | FR (A2780cis/A2780), fold resistance [7]: 1.1 | IC50 [8]: > 80 µM | IC50 [9]: > 80 µM

[Cl-].[Cl-].[Cl-].[Cl-].c1ccc(C[N+](Cc2ccccc2)=C2[S][Au-]3([S]2)[n+]2ccc[n+]4c2-c2[n+]3ccc[n+]2[Au-]42[S]C(=[N+](Cc3ccccc3)Cc3ccccc3)[S]2)cc1 [C8, [Au2(BPM)(DBDTC)2]Cl4]
IC50 [1]: 9.5 µM | IC50 [2]: 3.8 µM | FR (R-ME-180/ME-180), fold resistance [3]: 1.0 | IC50 [3]: 16 µM | IC50 [4]: 5.8 µM | IC50 [5]: 22.8 µM | IC50 [6]: 23 µM | IC50 [7]: 5.2 µM | FR (A2780cis/A2780), fold resistance [7]: 1.4 | IC50 [8]: 19.5 µM | IC50 [9]: 15 µM

CN(C)C1=[S+][Au-]2([S]1)[n+]1cccc(O)c1-c1c(O)ccc[n+]12.[Cl-].[Cl-] [C2, [Au(BPYH)(DMDTC)]Cl2]
IC50 [1]: 2.3 µM | IC50 [2]: 0.9 µM | FR (R-ME-180/ME-180), fold resistance [3]: 1.5 | IC50 [3]: 21 µM | IC50 [4]: 3.8 µM | IC50 [5]: 2.8 µM | IC50 [6]: 6.1 µM | IC50 [7]: 0.8 µM | FR (A2780cis/A2780), fold resistance [7]: 0.9 | IC50 [8]: 1.5 µM | IC50 [9]: 14 µM | Voltammetry peak potential (lysozyme; [10]): 0.7921 V | Voltammetry peak potential (lysozyme; CV, 1 μM lysozyme, pH 6.8): 0.8009 V | Voltammetry peak potential (lysozyme; CV, 4 μM lysozyme, pH 6.8): 0.8186 V | Voltammetry peak potential (lysozyme; CV, 10 μM lysozyme, pH 6.8): 0.8319 V | Voltammetry peak potential (lysozyme; SWV, 0 μM lysozyme, pH 6.8): 0.7883 V | Voltammetry peak potential (lysozyme; SWV, 1 μM lysozyme, pH 6.8): 0.7934 V | Voltammetry peak potential (lysozyme; SWV, 4 μM lysozyme, pH 6.8): 0.8085 V | Voltammetry peak potential (lysozyme; SWV, 10 μM lysozyme, pH 6.8): 0.8135 V
